Results as given in patent publication US7138361B2, “Herbicidal heterocycles” (E. I. du Pont de Nemours and Company, priority 2000, dated 2006).

Tests used:
Assay type in all cases: in vivo
[1] = test system: Surinam grass (Brachiaria decumbens); assay: Test B postemergence; settings: 13 to 15 days
Outline: (§1)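 Post-treatment, species sat 13–15 days under greenhouse conditions before visual scoring against controls, 0 (no effect) through 100 (complete control). Application preemergence to sown seeds or postemergence at 1- to 4-leaf stage, using a non-phytotoxic solvent/surfactant formulation.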

[2] = test system: barnyardgrass (Echinochloa crus-galli); assay: Test B postemergence; settings: 13 to 15 days
Outline: as §1

[3] = test system: blackgrass (Alopecurus myosuroides); assay: Test B postemergence; settings: 13 to 15 days
Outline: as §1

[4] = test system: cocklebur (Xanthium strumarium); assay: Test B postemergence; settings: 13 to 15 days
Outline: as §1

corn (Zea mays) [5] = assay: Test B postemergence; settings: 13 to 15 days
Outline: as §1

[6] = test system: crabgrass (Digitaria sanguinalis); assay: Test B postemergence; settings: 13 to 15 days
Outline: as §1

[7] = test system: giant foxtail (Setaria faberii); assay: Test B postemergence; settings: 13 to 15 days
Outline: as §1

[8] = test system: lambsquarters (Chenopodium album); assay: Test B postemergence; settings: 13 to 15 days
Outline: as §1

[9] = test system: morning glory (Ipomoea hederacea); assay: Test B postemergence; settings: 13 to 15 days
Outline: as §1

[10] = test system: pigweed (Amaranthus retroflexus); assay: Test B postemergence; settings: 13 to 15 days
Outline: as §1

[11] = test system: velvetleaf (Abutilon theophrasti); assay: Test B postemergence; settings: 13 to 15 days
Outline: as §1

[12] = test system: wheat (Triticum aestivum); assay: Test B postemergence; settings: 13 to 15 days
Outline: as §1

wild oat (Avena fatua) = assay: Test B postemergence; settings: 13 to 15 days
Outline: as §1

Sunflower [13] = assay: Test C preemergence; settings: Rate 125 g/ha; scale 0 to 100, 0 no effect, 100 complete control
[14] = test system: bermudagrass (Cynodon dactylon); assay: Test C preemergence; settings: for Plant response rating (0 to 100 where 0 is no effect and 100 is complete control), Bermudagrass: visual evaluation after 12 to 14 days
Outline: (§2)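 Plants held in greenhouse for 12–14 days post-application are scored by eye against controls on a 0–100 control scale. Application timing: preemergence on sown seed, or postemergence on 2–18 cm plants.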

corn (Zea mays) [15] = assay: Test C preemergence; settings: for Plant response rating (0 to 100), Corn: visual evaluation after 12 to 14 days
Outline: as §2

[16] = test system: giant foxtail (Setaria faberii); assay: Test C preemergence; settings: for Plant response rating (0 to 100), Foxtail, Giant: visual evaluation after 12 to 14 days
Outline: as §2

[17] = test system: johnsongrass (Sorghum halepense); assay: Test C preemergence; settings: for Plant response rating (0 to 100), Johnsongrass: visual evaluation after 12 to 14 days
Outline: as §2

kochia (Kochia scoparia) = assay: Test C preemergence; settings: for Plant response rating (0 to 100), Kochia: visual evaluation after 12 to 14 days
Outline: as §2

[18] = test system: morningglory (Ipomoea hederacea); assay: Test C preemergence; settings: for Plant response rating (0 to 100), Morningglory: Rate 500 g/ha, visual evaluation after 12 to 14 days
Outline: as §2

[19] = test system: velvetleaf (Abutilon theophrasti); assay: Test C preemergence; settings: for Plant response rating (0 to 100), Velvetleaf: Rate 500 g/ha, visual evaluation after 12 to 14 days
Outline: as §2

[20] = test system: yellow nutsedge (Cyperus esculentus); assay: Test C preemergence; settings: for Plant response rating (0 to 100), Nutsedge: Rate 500 g/ha, visual evaluation after 12 to 14 days
Outline: as §2

Sunflower [21] = assay: Test C preemergence; settings: Rate 500 g/ha, visual evaluation after 12 to 14 days
[22] = Rate 125 g/ha, scale 0 (no effect) to 100 (complete control)
[23] = Rate 500 g/ha, scale 0 to 100, 0 is no effect, 100 is complete control
[24] = Rate 125 g/ha, scale 0 to 100, 0 no effect, 100 complete control
[25] = preemergence, Rate 62 g/ha, scale 0 to 100
[26] = preemergence, Rate 250 g/ha, scale 0 to 100, 0 no effect, 100 complete control
[27] = Rate 62 g/ha, scale 0 to 100, 0 no effect, 100 complete control

With `CC(C)(C)c1ccn(C2CCN(c3cccc(I)c3)C2=O)n1` (centres unmarked) [Compound 88] the “Plant response rating, Surinam grass” value [1, 22] was 0, the “Plant response rating, Surinam grass” value [1, 23] was 0 and the “Plant response rating, Barnyardgrass” value [2, 22] was 0. The “Plant response rating, Barnyardgrass” value [2, 23] was 90, the “Plant response rating, Blackgrass” value [3, 22] was 0 and the “Plant response rating, Blackgrass” value [3, 23] was 0. For the same molecule, the “Plant response rating, Cocklebur” value [4, 22] was 20, the “Plant response rating, Cocklebur” value [4, 23] was 30 and the “Plant response rating, Corn” value (corn (Zea mays) [5]; [22]) was 0. For the same molecule, the “Plant response rating, Corn” value (corn (Zea mays) [5]; [23]) was 10, the “Plant response rating, Crabgrass” value [6, 22] was 0 and the “Plant response rating, Crabgrass” value [6, 23] was 0. For the same molecule, the “Plant response rating, Foxtail, Giant” value [7, 22] was 20, the “Plant response rating, Foxtail, Giant” value [7, 23] was 60 and the “Plant response rating, Lambsquarters” value [8, 22] was 100. The “Plant response rating, Lambsquarters” value [8, 23] was 100, the “Plant response rating, Morningglory” value [9, 22] was 20 and the “Plant response rating, Morningglory” value [9, 23] was 70. For the same molecule, the “Plant response rating, Pigweed” value [10, 22] was 90, the “Plant response rating, Pigweed” value [10, 23] was 100 and the “Plant response rating, Velvetleaf” value [11, 22] was 0. The “Plant response rating, Velvetleaf” value [11, 23] was 40, the “Plant response rating, Wheat” value [12, 22] was 0 and the “Plant response rating, Wheat” value [12, 23] was 30. For the same molecule, the “Plant response rating, Wild Oat” value (wild oat (Avena fatua); [22]) was 0, the “Plant response rating, Wild Oat” value (wild oat (Avena fatua); [23]) was 0 and the “Plant response rating, Sunflower” value (Sunflower [13]) was 40. The “Plant response rating, Bermudagrass” value [14, 24] was 100, the “Plant response rating, Bermudagrass” value [14, 25] was 100 and the “Plant response rating (0 to 100 where 0 is no effect and 100 is complete control), Bermudagrass” value ([14]; preemergence, Rate 500 g/ha) was 100. The “Plant response rating, Bermudagrass” value [14, 26] was 100, the “Plant response rating, Corn” value (corn (Zea mays) [15]; [24]) was 10 and the “Plant response rating, Corn” value (corn (Zea mays) [15]; [25]) was 0. The “Plant response rating (0 to 100), Corn” value (corn (Zea mays) [15]; preemergence, Rate 500 g/ha) was 100, the “Plant response rating, Corn” value (corn (Zea mays) [15]; [26]) was 70 and the “Plant response rating, Foxtail, Giant” value [16, 24] was 100. The “Plant response rating, Foxtail, Giant” value [16, 25] was 0, the “Plant response rating (0 to 100), Foxtail, Giant” value ([16]; preemergence, Rate 500 g/ha) was 100 and the “Plant response rating, Foxtail, Giant” value [16, 26] was 100. For the same molecule, the “Plant response rating, Johnsongrass” value [17, 24] was 10, the “Plant response rating, Johnsongrass” value [17, 25] was 10 and the “Plant response rating (0 to 100), Johnsongrass” value ([17]; preemergence, Rate 500 g/ha) was 100. For the same molecule, the “Plant response rating, Johnsongrass” value [17, 26] was 40, the “Plant response rating, Kochia” value (kochia (Kochia scoparia); [24]) was 90 and the “Plant response rating, Kochia” value (kochia (Kochia scoparia); [25]) was 70. For the same molecule, the “Plant response rating (0 to 100), Kochia” value (kochia (Kochia scoparia); preemergence, Rate 500 g/ha) was 100, the “Plant response rating, Kochia” value (kochia (Kochia scoparia); [26]) was 100 and the “Plant response rating, Morningglory” value [18, 24] was 10. The “Plant response rating, Morningglory” value [18, 25] was 10, the “Plant response rating (0 to 100), Morningglory” value ([18]; preemergence) was 30 and the “Plant response rating, Morningglory” value [18, 26] was 30. The “Plant response rating, Velvetleaf” value [19, 24] was 10, the “Plant response rating, Velvetleaf” value [19, 25] was 0 and the “Plant response rating (0 to 100), Velvetleaf” value ([19]; preemergence) was 20. The “Plant response rating, Velvetleaf” value [19, 26] was 10, the “Plant response rating, Nutsedge” value [20, 24] was 0 and the “Plant response rating, Nutsedge” value [20, 25] was 0. The “Plant response rating (0 to 100), Nutsedge” value ([20]; preemergence) was 10, the “Plant response rating, Nutsedge” value [20, 26] was 0 and the “Plant response rating (0 to 100), Sunflower” value (Sunflower [21]) was 20.
With `Cc1ccc(N2CCC(n3ccc(C(C)(C)C)n3)C2=O)cc1OC(F)F` (centres unmarked) [Compound 79] the “Plant response rating, Surinam grass” value [1, 22] was 0, the “Plant response rating, Surinam grass” value [1, 23] was 0 and the “Plant response rating, Barnyardgrass” value [2, 22] was 0. For the same molecule, the “Plant response rating, Barnyardgrass” value [2, 23] was 0, the “Plant response rating, Blackgrass” value [3, 22] was 0 and the “Plant response rating, Blackgrass” value [3, 23] was 0. The “Plant response rating, Cocklebur” value [4, 22] was 30, the “Plant response rating, Cocklebur” value [4, 23] was 30 and the “Plant response rating, Corn” value (corn (Zea mays) [5]; [22]) was 0. The “Plant response rating, Corn” value (corn (Zea mays) [5]; [23]) was 0, the “Plant response rating, Crabgrass” value [6, 22] was 0 and the “Plant response rating, Crabgrass” value [6, 23] was 0. The “Plant response rating, Foxtail, Giant” value [7, 22] was 0, the “Plant response rating, Foxtail, Giant” value [7, 23] was 0 and the “Plant response rating, Lambsquarters” value [8, 22] was 0. For the same molecule, the “Plant response rating, Lambsquarters” value [8, 23] was 10, the “Plant response rating, Morningglory” value [9, 22] was 30 and the “Plant response rating, Morningglory” value [9, 23] was 40. For the same molecule, the “Plant response rating, Pigweed” value [10, 22] was 70, the “Plant response rating, Pigweed” value [10, 23] was 70 and the “Plant response rating, Velvetleaf” value [11, 22] was 0. For the same molecule, the “Plant response rating, Velvetleaf” value [11, 23] was 0, the “Plant response rating, Wheat” value [12, 22] was 0 and the “Plant response rating, Wheat” value [12, 23] was 0. For the same molecule, the “Plant response rating, Wild Oat” value (wild oat (Avena fatua); [22]) was 0, the “Plant response rating, Wild Oat” value (wild oat (Avena fatua); [23]) was 0 and the “Plant response rating, Sunflower” value (Sunflower [13]) was 0. The “Plant response rating, Bermudagrass” value [14, 27] was 100, the “Plant response rating, Bermudagrass” value [14, 24] was 100 and the “Plant response rating (0 to 100 where 0 is no effect and 100 is complete control), Bermudagrass” value ([14]; preemergence, Rate 250 g/ha) was 100. The “Plant response rating (0 to 100 where 0 is no effect and 100 is complete control), Bermudagrass” value ([14]; preemergence, Rate 500 g/ha) was 100, the “Plant response rating, Corn” value (corn (Zea mays) [15]; [27]) was 0 and the “Plant response rating, Corn” value (corn (Zea mays) [15]; [24]) was 0. For the same molecule, the “Plant response rating (0 to 100), Corn” value (corn (Zea mays) [15]; preemergence, Rate 250 g/ha) was 0, the “Plant response rating (0 to 100), Corn” value (corn (Zea mays) [15]; preemergence, Rate 500 g/ha) was 0 and the “Plant response rating, Foxtail, Giant” value [16, 27] was 0. The “Plant response rating, Foxtail, Giant” value [16, 24] was 0, the “Plant response rating (0 to 100), Foxtail, Giant” value ([16]; preemergence, Rate 250 g/ha) was 0 and the “Plant response rating (0 to 100), Foxtail, Giant” value ([16]; preemergence, Rate 500 g/ha) was 0. The “Plant response rating, Johnsongrass” value [17, 27] was 0, the “Plant response rating, Johnsongrass” value [17, 24] was 0 and the “Plant response rating (0 to 100), Johnsongrass” value ([17]; preemergence, Rate 250 g/ha) was 0. For the same molecule, the “Plant response rating (0 to 100), Johnsongrass” value ([17]; preemergence, Rate 500 g/ha) was 0, the “Plant response rating, Kochia” value (kochia (Kochia scoparia); [27]) was 100 and the “Plant response rating, Kochia” value (kochia (Kochia scoparia); [24]) was 100. For the same molecule, the “Plant response rating (0 to 100), Kochia” value (kochia (Kochia scoparia); preemergence, Rate 250 g/ha) was 100, the “Plant response rating (0 to 100), Kochia” value (kochia (Kochia scoparia); preemergence, Rate 500 g/ha) was 100 and the “Plant response rating, Morningglory” value [18, 27] was 0. The “Plant response rating, Morningglory” value [18, 24] was 0, the “Plant response rating (0 to 100), Morningglory” value ([18]; preemergence) was 70 and the “Plant response rating, Morningglory” value [18, 26] was 30. For the same molecule, the “Plant response rating, Velvetleaf” value [19, 24] was 0, the “Plant response rating (0 to 100), Velvetleaf” value ([19]; preemergence) was 50 and the “Plant response rating, Velvetleaf” value [19, 26] was 20. For the same molecule, the “Plant response rating, Nutsedge” value [20, 27] was 0, the “Plant response rating, Nutsedge” value [20, 24] was 0 and the “Plant response rating (0 to 100), Nutsedge” value ([20]; preemergence) was 0. The “Plant response rating, Nutsedge” value [20, 26] was 0 and the “Plant response rating (0 to 100), Sunflower” value (Sunflower [21]) was 60.
